According to ChEMBL document CHEMBL1143447, “Identification of synthetic compounds active against VRE: the role of the lipidated aminoglucose and the structure of glycopeptide binding pocket” (2005):
Converted amounts (≈) assume the structure as drawn.

Key:
Format in all cases: functional
[1] = tested on: Staphylococcus aureus; experiment: Minimum inhibitory concentration against 3797 Staphylococcus aureus Clin. isolate VISA
[2] = tested on: Streptococcus pyogenes; experiment: Minimum inhibitory concentration against 49 Streptococcus pyogenes C203
[3] = tested on: Staphylococcus aureus; experiment: Minimum inhibitory concentration against 613 Staphylococcus aureus Clin. isolate Met-R
[4] = tested on: Enterococcus faecium; experiment: Minimum inhibitory concentration against 568 Enterococcus faecium (isogenic of L569)
[5] = tested on: Staphylococcus epidermidis; experiment: Minimum inhibitory concentration against 147 Staphylococcus epidermidis ATCC 12228
[6] = tested on: Staphylococcus aureus; experiment: Minimum inhibitory concentration against 3798 Staphylococcus aureus Clin. isolate VISA
[7] = tested on: Staphylococcus aureus; experiment: Minimum inhibitory concentration against 819 Staphylococcus aureus Smith MSSA
[8] = tested on: Staphylococcus aureus; experiment: Minimum inhibitory concentration against 1400 Staphylococcus aureus Clin. isolate Met-R
[9] = tested on: Enterococcus faecalis; experiment: Minimum inhibitory concentration against 559 Enterococcus faecalis (isogenic of L 560)
[10] = tested on: Enterococcus faecium; experiment: Minimum inhibitory concentration against 2215 Enterococcus faecium clin. isolate Van-A
[11] = tested on: Enterococcus faecium; experiment: Minimum inhibitory concentration against 569 Enterococcus faecium clin. isolate Van-A
[12] = tested on: Enterococcus faecalis; experiment: Minimum inhibitory concentration against 2981 Enterococcus faecalis clin. Isolate Van-A
[13] = tested on: Enterococcus faecalis; experiment: Minimum inhibitory concentration against 1139 Enterococcus faecalis teico-vanco-sensitive
[14] = tested on: Enterococcus faecalis; experiment: Minimum inhibitory concentration against 559 Enterococcus faecalis Van-A

| SMILES | MIC [1] [µg/mL] | MIC [2] [µg/mL] | MIC [3] [µg/mL] | MIC [4] [µg/mL] | MIC [5] [µg/mL] | MIC [6] [µg/mL] | MIC [7] [µg/mL] | MIC [8] [µg/mL] | MIC [9] [µg/mL] | MIC [10] [µg/mL] | MIC [11] [µg/mL] | MIC [12] [µg/mL] | MIC [13] [µg/mL] | MIC [14] [µg/mL] |
| --- | --- | --- | --- | --- | --- | --- | --- | --- | --- | --- | --- | --- | --- | --- |
| CC(=O)N[C@@H]1[C@H](Oc2c3cc4cc2Oc2ccc(cc2Cl)[C@@H](O[C@@H]2O[C@@H](CO)[C@@H](O)[C@H](O)[C@@H]2NC(C)=O)[C@@H]2NC(=O)[C@H](NC(=O)[C@@H]4NC(=O)[C@H]4NC(=O)[C@@H](Cc5ccc(c(Cl)c5)O3)NC(=O)[C@H](N)c3ccc(O)c(c3)Oc3cc(O)cc4c3)c3ccc(O)c(c3)-c3c(O[C@H]4O[C@H](CO)[C@@H](O)[C@@H](O)[C@@H]4O)cc(O)cc3[C@@H](C(=O)O)NC2=O)O[C@@H](CO)[C@@H](O)[C@@H]1O | 16 (≈ 9.05 µM) | ≤ 0.125 | 1 (≈ 0.566 µM) | ≤ 0.125 | 2 (≈ 1.13 µM) | 4 (≈ 2.26 µM) | 1 (≈ 0.566 µM) | 1 (≈ 0.566 µM) | – | – | – | – | – | – |
| CCCCCCCCCCCC(=O)NC1C(Oc2cc3cc(c2OC)Oc2ccc(cc2[N+](=O)[O-])C[C@@H](NC(=O)[C@H](N)CC(C)C)C(=O)N[C@@H](Cc2ccccc2)C(=O)N[C@H]3[C@@H](O)C(=O)NCCCC(=O)N[C@@H](C(=O)NCCCN(C)C)c2ccccc2)OC(CO)C(O)C1O.O=C(O)C(F)(F)F (stereo partly specified) | 32 | 8 | 32 | 16 | 16 | 16 | – | – | 16 | 32 | 8 | 32 | 32 | 8 |
| CCCCCCCCCCCC(=O)NC1C(Oc2c(Oc3ccc([N+](=O)[O-])cc3)cc3cc2Oc2ccc(cc2[N+](=O)[O-])C[C@@H](NC(=O)[C@H](N)CC(C)C)C(=O)N[C@@H](Cc2ccccc2)C(=O)N[C@H]3[C@H](O)C(=O)O)OC(CO)C(O)C1O.O=C(O)C(F)(F)F (stereo partly specified) | 32 | 32 | – | 64 | – | – | – | – | 8 | – | 32 | – | 32 | 8 |
| CC(C)C[C@@H](N)C(=O)N[C@@H]1Cc2ccc(c([N+](=O)[O-])c2)Oc2cc(cc(Oc3ccc([N+](=O)[O-])cc3)c2O)[C@H]([C@@H](O)C(=O)O)NC(=O)[C@H](Cc2ccccc2)NC1=O.Cl | 64 | 64 | – | – | – | – | – | – | 64 | – | – | – | – | 64 |
| COc1c(Oc2ccc([N+](=O)[O-])cc2)cc2cc1Oc1ccc(cc1[N+](=O)[O-])C[C@@H](NC(=O)[C@H](N)CC(C)C)C(=O)N[C@@H](Cc1ccccc1)C(=O)N[C@H]2[C@@H](O)C(=O)O.Cl | 16 | 16 | – | – | – | – | – | – | 16 | – | – | – | 64 | 16 |
| CCCCCCCCCCCC(=O)NC1C(Oc2cc3cc(c2OC)Oc2ccc(cc2[N+](=O)[O-])C[C@@H](NC(=O)[C@H](N)CC(C)C)C(=O)N[C@@H](Cc2ccccc2)C(=O)N[C@H]3[C@H](O)C(=O)O)OC(CO)C(O)C1O.Cl (stereo partly specified) | – | 32 | – | – | – | – | – | – | – | – | – | – | – | – |
| CCCCCCCCCCCC(=O)NC1C(Oc2cc3cc(c2OC)Oc2ccc(cc2[N+](=O)[O-])C[C@@H](NC(=O)[C@H](N)CC(C)C)C(=O)N[C@@H](Cc2ccccc2)C(=O)N[C@H]3[C@@H](O)C(=O)O)OC(CO)C(O)C1O.Cl (stereo partly specified) | – | 32 | – | 64 | 64 | – | – | – | 8 | 32 | 32 | 32 | 32 | 8 |
| CN[C@H](CC(C)C)C(=O)N[C@H]1C(=O)N[C@@H](CC(N)=O)C(=O)N[C@H]2C(=O)N[C@H]3C(=O)N[C@H](C(=O)N[C@H](C(=O)O)c4cc(O)cc(O)c4-c4cc3ccc4O)[C@H](O)c3ccc(c(Cl)c3)Oc3cc2cc(c3O[C@@H]2O[C@H](CO)[C@@H](O)[C@H](O)[C@H]2O[C@H]2C[C@](C)(N)[C@H](O)[C@H](C)O2)Oc2ccc(cc2Cl)[C@H]1O [VANCOMYCIN] | 8 (≈ 5.52 µM) | ≤ 0.125 | 1 (≈ 0.69 µM) | 2 (≈ 1.38 µM) | 1 (≈ 0.69 µM) | 8 (≈ 5.52 µM) | 1 (≈ 0.69 µM) | 1 (≈ 0.69 µM) | 1 (≈ 0.69 µM) | – | – | – | 2 (≈ 1.38 µM) | – |
